# Key:
# [1] = system: formalin-induced pain response (flinching); test: Formalin paw test in the mouse or rat; format: in vivo; settings: 30 mg/kg p.o.; intraplantar 5% formalin
# Protocol: 1. Formalin paw test in the mouse or rat accorrding to Wheeler-Aceto et al., (Psychopharmacology 1991, 104: 35-44): Animals are given an intraplantar injection of 5% formalin (25 μl for the mouse, 50 μl for the rat) into the posterior left paw. This treatment induces a recognizable flinching response in control animals. The number of flinches is counted for 10 minutes, beginning immediately after injection of formalin (early phase) and again for 5 minutes in mice or 15 minutes in rats, beginning 20 minutes after the injection.
# [2] = system: writhing response induced by phenylbenzoquinone (PBQ) or acetic acid; test: Phenylbenzoquinone and acetic writhing tests in mice; format: in vivo, mouse; settings: 30 mg/kg p.o., PBQ 1.25 mg/kg i.p. or acetic acid 0.5% i.p.
# Protocol: 5. Phenylbenzoquinone and acetic writhing tests in mice follow the methods described by Hendershot et al (J. Pharmacol. Exp. Ther. 1959, 125: 237-240): Mice are injected with phenylbenzoquinone (PBQ) (1.25 mg/kg i.p.) or acetic acid (0.5% i.p.). This treatment induces a recognizable writhing response in control animals. The number of writhes is counted for 10 minutes beginning 5 minutes after injection of PBQ or acetic acid.
smiles,measurement,setting,value
Cl.N#Cc1ccc2[nH]cc(CCCCN3CCN(c4ccc5oc(C(N)=O)cc5c4)CC3)c2c1 [1-[4-(5-cyanoindol-3-yl)butyl]-4-(2-carbamoyl-benzofuran-5-yl)-piperazine hydrochloride],reduction of the formalin-induced pain response,[1],79%
same,reduction of writhes,[2],82%

# — patent US7479492B2, “Use combined 5-HT1A agonists and selective serotonin reuptake inhibitors” (Merck Patent GmbH, priority 2000, dated 2009)
